# Measurements: patent US4770997A, “Thermostable bilirubin oxidase and production process thereof” (Toyo Jozo Co., Ltd., priority 1985, dated 1988)
# Key:
# [1] = tested on: Bacillus licheniformis B-0891 (FERM BP-952) bilirubin oxidase (Invention Sample); experiment: Km value of the thermostable bilirubin oxidase of this invention; assay type: biochemical; settings: at pH 8.0; substrate bilirubin
# Experimental: A reaction mixture (1.49 ml) of the above composition was placed in a small test tube. After heating it to 37° C., 0.01 ml of a 10 mM bilirubin solution was added to initiate the reaction. They were reacted at 37° C. for 10 minutes. After the reaction, 1.5 ml of 1% CPC (N-cetylpyridinium chloride) was added to terminate the reaction and the reaction mixture was subjected to the colorimetric analysis at 453 nm to determine its absorbance [S]. On the other hand, as a blank, a reaction mixture (1.44 ml) of the same type as the above-employed reaction mixture except for the exclusion of the enzyme solution was added with 0.01 ml of the bilirubin solution. The resultant mixture was incubated at 37° C. for 10 minutes precisely. Thereafter, 1.5 ml of 1% CPC and 0.05 ml of the bilirubin oxidase solution were added successively. The thus-prepared mixture was subjected to the colorimetric analysis at 453 nm to determine its absorbance [B]. The enzymatic activity is calculated in accordance with the following equation: [formula] wherein 1 unit (U) of the enzymatic activity is defined as the amount of enzyme which oxidizes 1 μmol of bilirubin per minute under the above-described conditions.
# [2] = target: T1, bilirubin oxidase originated from Myrothecium (Prior Art Sample No. 3) (Albifimbria verrucaria, UniProt Q12737); settings: Prior Art Sample No. 3, originated from Myrothecium; substrate bilirubin; cited from earlier work
# T1 sequence (Q12737 39-572): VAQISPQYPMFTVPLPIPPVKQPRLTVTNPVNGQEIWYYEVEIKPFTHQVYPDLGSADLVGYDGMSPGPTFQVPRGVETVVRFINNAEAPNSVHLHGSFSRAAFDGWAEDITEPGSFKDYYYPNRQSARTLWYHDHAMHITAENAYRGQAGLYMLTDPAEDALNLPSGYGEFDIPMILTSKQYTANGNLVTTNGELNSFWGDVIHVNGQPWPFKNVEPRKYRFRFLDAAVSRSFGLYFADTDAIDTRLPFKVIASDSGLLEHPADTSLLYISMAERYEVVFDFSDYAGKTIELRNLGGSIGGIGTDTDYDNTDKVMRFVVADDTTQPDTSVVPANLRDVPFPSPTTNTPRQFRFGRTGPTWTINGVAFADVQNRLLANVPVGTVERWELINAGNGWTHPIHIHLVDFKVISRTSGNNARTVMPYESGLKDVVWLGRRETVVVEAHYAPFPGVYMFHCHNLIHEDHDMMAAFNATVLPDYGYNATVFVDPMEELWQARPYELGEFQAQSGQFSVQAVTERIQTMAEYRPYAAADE
structure (smiles),measurement,setting,value
C=CC1=C(C)/C(=C/c2[nH]c(Cc3[nH]c(/C=C4\NC(=O)C(C)=C4C=C)c(C)c3CCC(=O)O)c(CCC(=O)O)c2C)NC1=O [Bilirubin],Km,[1],28.6 µM
same,Km,[2],190 µM
